Columns and labels:
[1] = Cell viability with a combined anticancer agent plus Example B01 (Synergy 1 / Synergy 2); type: cell-based; settings: culture time 72 h; printed in the anticancer agent concentration column
KRAS^G12C::SOS1 = target: T1, KRAS^G12C::SOS1 (Homo sapiens, UniProt Q07889); assay: KRAS G12C::SOS1 protein-protein interaction (PPI) inhibition assay (HTRF binding kit)
T1 sequence (Q07889 1-1333): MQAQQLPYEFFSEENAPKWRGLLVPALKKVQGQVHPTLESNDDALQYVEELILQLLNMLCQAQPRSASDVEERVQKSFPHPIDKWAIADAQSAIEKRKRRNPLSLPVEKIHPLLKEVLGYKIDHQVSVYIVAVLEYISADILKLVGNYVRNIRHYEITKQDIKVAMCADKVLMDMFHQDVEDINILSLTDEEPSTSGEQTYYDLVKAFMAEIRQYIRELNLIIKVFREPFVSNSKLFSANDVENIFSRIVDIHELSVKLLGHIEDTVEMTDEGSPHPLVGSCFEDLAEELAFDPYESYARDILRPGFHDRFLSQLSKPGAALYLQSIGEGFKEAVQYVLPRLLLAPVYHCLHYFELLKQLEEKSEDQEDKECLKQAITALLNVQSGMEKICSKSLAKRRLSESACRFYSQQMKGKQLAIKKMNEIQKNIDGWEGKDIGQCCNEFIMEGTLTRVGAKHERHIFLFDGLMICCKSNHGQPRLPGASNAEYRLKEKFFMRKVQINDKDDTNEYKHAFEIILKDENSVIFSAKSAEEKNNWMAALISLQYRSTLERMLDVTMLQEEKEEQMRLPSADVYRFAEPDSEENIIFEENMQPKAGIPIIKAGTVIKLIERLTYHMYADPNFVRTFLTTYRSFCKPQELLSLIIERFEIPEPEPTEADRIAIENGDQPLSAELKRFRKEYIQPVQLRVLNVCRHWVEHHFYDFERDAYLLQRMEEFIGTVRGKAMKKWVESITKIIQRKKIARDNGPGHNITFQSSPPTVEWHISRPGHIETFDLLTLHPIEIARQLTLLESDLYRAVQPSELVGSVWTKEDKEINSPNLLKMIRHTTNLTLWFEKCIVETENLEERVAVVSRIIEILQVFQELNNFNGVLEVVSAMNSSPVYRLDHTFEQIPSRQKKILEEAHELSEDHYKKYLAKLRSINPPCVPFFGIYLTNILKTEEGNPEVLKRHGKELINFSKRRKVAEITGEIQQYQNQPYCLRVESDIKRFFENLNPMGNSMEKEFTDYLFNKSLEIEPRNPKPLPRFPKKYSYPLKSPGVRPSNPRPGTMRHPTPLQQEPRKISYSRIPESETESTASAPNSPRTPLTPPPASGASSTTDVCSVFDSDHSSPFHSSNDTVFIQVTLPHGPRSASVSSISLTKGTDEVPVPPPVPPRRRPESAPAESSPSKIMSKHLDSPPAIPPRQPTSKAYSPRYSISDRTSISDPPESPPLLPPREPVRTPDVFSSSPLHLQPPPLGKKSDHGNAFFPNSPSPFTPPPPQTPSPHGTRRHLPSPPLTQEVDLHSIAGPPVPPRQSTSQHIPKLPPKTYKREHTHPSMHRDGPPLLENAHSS

SOS1 = target: T2, SOS1 (Homo sapiens, UniProt Q07889); assay: SOS-catalyzed nucleotide exchange assay (HTRF, SOS1-mediated GTP loading of KRAS G12D); type: biochemical
T2 construct: adding equal amounts of HIS-SOS1cat (160 nM; Cytoskeleton, US); His; purchased Cytoskeleton, US
T2 sequence (Q07889 564-1049 limits assumed): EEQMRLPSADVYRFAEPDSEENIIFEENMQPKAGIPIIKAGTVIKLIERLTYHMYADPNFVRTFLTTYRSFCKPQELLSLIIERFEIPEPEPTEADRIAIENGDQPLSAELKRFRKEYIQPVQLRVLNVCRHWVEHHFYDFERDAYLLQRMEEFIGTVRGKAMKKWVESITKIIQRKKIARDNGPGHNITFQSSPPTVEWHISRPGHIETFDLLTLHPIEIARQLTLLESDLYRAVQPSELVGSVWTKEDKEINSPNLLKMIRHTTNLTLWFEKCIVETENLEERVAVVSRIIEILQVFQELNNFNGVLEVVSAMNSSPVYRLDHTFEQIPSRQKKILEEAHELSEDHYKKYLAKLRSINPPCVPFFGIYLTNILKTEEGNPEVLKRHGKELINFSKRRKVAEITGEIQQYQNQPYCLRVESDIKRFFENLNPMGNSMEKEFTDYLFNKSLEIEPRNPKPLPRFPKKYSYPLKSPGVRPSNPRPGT
How it was run: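 SOS1cat (HIS-tagged) preincubated 10 min at room temperature with compound (128 pM-10 µM), then GST-KRAS G12D with anti-GST terbium added; GTP loading tracked as HTRF with a DY-647P1 GTP analogue after 30 min, buffer HEPES pH 7.4. GEF-free wells for normalization; IC50 derived.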

[2] = test system: lung cancer cell line H358 having the KRAS G12C variant; assay: SynergyScreen determination of combination concentration (ATPlite 1Step cell viability); type: cell-based; settings: EFFECT20 applied as final treatment concentration in the combination experiment
Method: The cells were treated by adding 5 µL of a test solution of Example B01 per well to a 384 well plate in which the lung cancer cell line H358 having the KRAS G12C variant was dispensed so that the final concentration of the substance was 31.6 µM to 0.00316 µM in 50 µL of the solution per well. The cells treated with Example B01 were cultured under conditions of 37 °C and 5% carbon dioxide for 72 h or 120 h. In order to measure cell viability, each well was treated with 24 µL of ATPlite 1Step™ (PerkinElmer) solution, then mixed for 2 minutes, and reacted by blocking light for 5 minutes, and then the luminescence signal was measured using an Envision multilabel reader (PerkinElmer). The cell viability was determined according to the formula below, and the concentration (EFFECT20) of Example B01 that induces 20% cell death was calculated using IDBS XLfit 5. The EFFECT20 concentration of Example B01 determined through the experiment was applied as the final treatment concentration of Example B01 during the combination effect experiment. [formula]
In order to confirm the effect of Example B01 in combination with various anticancer agents, a total of 42 anticancer agents, including cytotoxic anticancer agents and targeted anticancer agents, were used for evaluation (Table 31). […]

For `C[C@]12C=CC(=O)C=C1CC[C@@H]1[C@@H]2[C@@H](O)C[C@@]2(C)[C@H]1CC[C@]2(O)C(=O)CO` [Prednisolone, prednisolone], which “concentration dependence of the effect of the anticancer agent on cell viability” value [1] is on record?
Its value is “No concentration -dependent change”.

What does the source list for `C[C@@H](NC(=O)c1ccc(=O)n(-c2cncc(-c3cnnn3C)c2)n1)c1cccc(C(F)(F)F)c1F` [Example B01, N-[(1R)-1-[2-fluoro-3-(trifluoromethyl)phenyl]ethyl]-1-[5-(3-methyltriazol-4-yl)-3-pyridyl]-6-oxo-pyridazine-3-carboxamide]?
IC50 (KRAS^G12C::SOS1): < 1000 nM; IC50 (SOS1): < 1000 nM; concentration (EFFECT20) that induces 20% cell death ([2]; culture time 72 h): 1854 nM; concentration (EFFECT20) that induces 20% cell death ([2]; culture time 120 h): 652 nM
